Our source for the IC50 values is patent US7550453B2, “2-alkoxy-3,4,5-trihydroxy-alkylamides, preparation thereof, compositions containing them and use thereof” (Aventis Pharma SA, priority 2004, dated 2009).

In the assay the test system is Hep-G2 cells. The assay is described as follows: Inhibition of cell proliferation of Hep-G2 cells (intracellular ATP, CellTiterGlo). It is filed as cell-based. The following applies: Homo sapiens, HepG2, 72 hours incubation, ATP content, read-out: IC 50 (μM)/HEP G2. Here is the method:
The antitumoral activity of products 1 to 10 was determined by measuring the inhibition of cell proliferation of Hep-G2 cells. The cells are subcultured in a cell culture medium at a concentration of 1000 cells per well, and incubated for 4 hours at 37° C. and 5% CO2.
Medium used for the Hep-G2 and HCT-116 cell culture: Dubelcco's modified Eagle's medium/Ham mixture F12 (Gibco); NEAA (10%; nonessential amino acids, Gibco); sodium pyruvate (1%, Gibco); L-glutamine (1%, Gibco); fetal calf serum (5%; PAA).
After 4 hours, the test products dissolved in a DMSO/cell culture medium mixture are added at various concentrations and the resulting mixtures are incubated for 72 hours at 37° C. and 5% CO2. The intracellular ATP content was measured using the CellTiterGlo test reagent (Promega).
(Cellular ATP, detected with luciferase, serves as a proxy for viable cell number.)

Consider `COC(=O)C1CC(NC(=O)[C@H](OC)[C@H](O)[C@@H](O)[C@H](O)/C=C/C(C)(C)C)C(=O)N1` (stereo partly drawn) [Ex 5, Methyl 5-oxo-4-((E)-(2R,3R,4S,5R)-3,4,5-tri-hydroxy-2-methoxy-8,8-dimethylnon-6-enoylamino)pyrrolidine-2-carboxylate], for which the IC50 was determined as 26.7 µM. Consider `CO[C@@H](C(=O)NC1CCNC1=O)[C@H](O)[C@@H](O)[C@H](O)/C=C/C(C)(C)C` (stereo partly drawn) [Ex 4, N-(2-oxopyrrolidin-3-yl)-(E)-(2R,3R,4S,5R)-3,4,5-trihydroxy-2-methoxy-8,8-dimethylnon-6-enamide], for which the IC50 was found to be 3.1 µM. Then `CO[C@@H](C(=O)NC1CCCCNC1=O)[C@H](O)[C@@H](O)[C@H](O)/C=C/C(C)C` (some centres unmarked) [Bengamide E, reference compound], with 7 µM; and `CO[C@@H](C(=O)NC1CSCCNC1=O)[C@H](O)[C@@H](O)[C@H](O)/C=C/C(C)(C)C` (stereo partly drawn) [Ex 8, N-(5-oxoperhydro-1,4-thiazepin-6-yl)-(E)-(2R,3R,4S,5R)-3,4,5-trihydroxy-2-methoxy-8,8-dimethylnon-6-enamide], with 0.83 µM; and `CO[C@@H](C(=O)NC1CN(c2ccccc2)C1=O)[C@H](O)[C@@H](O)[C@H](O)/C=C/C(C)(C)C` (stereo partly drawn) [Ex 3, N-(2-Oxo-1-phenylazetidin-3-yl)-(E)-(2R,3R,4S,5R)-3,4,5-trihydroxy-2-methoxy-8,8-dimethylnon-6-enamide], with 0.48 µM.

On to `CO[C@@H](C(=O)N[C@H]1Cc2ccccc2[C@H]2CCCCN2C1=O)[C@H](O)[C@@H](O)[C@H](O)/C=C/C(C)(C)C` [Ex 9, N-((7S,12bR)-6-oxo-1,2,3,4,6,7,8,12b-octa-hydropyrido[2,1-a][2]benzazepin-7-yl)-(E)-(2R,3R,4S,5R)-3,4,5-trihydroxy-2-methoxy-8,8-dimethylnon-6-enamide], for which the IC50 was 3.6 µM.

Consider `CO[C@@H](C(=O)N[C@H]1CCCCN(Cc2ccc(-c3ccccc3)cc2)C1=O)[C@H](O)[C@@H](O)[C@H](O)/C=C/C(C)(C)C` [Ex 2, N—[(S)-1-(biphenyl-4-ylmethyl)-2-oxoperhydroazepin-3-yl]-(E)-(2R,3R,4S,5R)-3,4,5-trihydroxy-2-methoxy-8,8-dimethylnon-6-enamide], for which the IC50 was 1.3 µM. For the molecule `CO[C@@H](C(=O)NC1Cc2ccccc2CN(C)C1=O)[C@H](O)[C@@H](O)[C@H](O)/C=C/C(C)(C)C` (stereo partly drawn) [Ex 1, N-(2-Methyl-3-oxo-2,3,4,5-tetrahydro-1H-2-benzazepin-4-yl)-(E)-(2R,3R,4S,5R)-3,4,5-trihydroxy-2-methoxy-8,8-dimethylnon-6-enamide], the IC50 was found to be 0.17 µM.

`CO[C@@H](C(=O)NC1CCCNC1=O)[C@H](O)[C@@H](O)[C@H](O)/C=C/C(C)(C)C` (stereo partly drawn) [Ex 6, N-(2-oxopiperidin-3-yl)-(E)-(2R,3R,4S,5R)-3,4,5-trihydroxy-2-methoxy-8,8-dimethylnon-6-enamide]: the IC50 amounted to 1.19 µM.

Regarding `CO[C@@H](C(=O)NC1Cc2ccccc2NC1=O)[C@H](O)[C@@H](O)[C@H](O)/C=C/C(C)(C)C` (stereo partly drawn) [Ex 7, N-(2-oxo-1,2,3,4-tetrahydroquinolin-3-yl)-(E)-(2R,3R,4S,5R)-3,4,5-trihydroxy-2-methoxy-8,8-dimethylnon-6-enamide], the IC50 worked out at 1.11 µM. Then `CO[C@@H](C(=O)N[C@H]1CCCCN(Cc2ccc(-c3ccccc3)cc2)C1=O)[C@H](O)[C@@H](O)[C@H](O)C=NOCc1ccccc1` (racemic) [Ex 10, N—[(S)-1-(biphenyl-4-ylmethyl)-2-oxoperhydro-azepin-3-yl](2R,3R,4S,5S)-6-benzyloxyimino-3,4,5-trihydroxy-2-methoxyhexylamide], with 18.3 µM.
